{"source": "ChEMBL document CHEMBL1201861", "about": "“Genomics of Drug Sensitity in Cancer screening data, Wellcome Trust Sanger Institute”", "test_in_all_cases": "cells", "key": {"KY821": {"system": "KY821", "type": "functional, cell-based", "settings": "Homo sapiens", "description": "SANGER: Inhibition of human KY821 cell growth in a cell viability assay."}, "NCI-H1623": {"system": "NCI-H1623", "type": "functional, cell-based, Homo sapiens", "settings": "Homo sapiens, NCI-H1623", "description": "SANGER: Inhibition of human NCI-H1623 cell growth in a cell viability assay."}, "HCC70": {"system": "HCC70", "type": "functional, cell-based, Homo sapiens", "settings": "Homo sapiens, HCC70", "description": "SANGER: Inhibition of human HCC70 cell growth in a cell viability assay."}, "LS-411N": {"system": "LS-411N", "type": "functional, cell-based, Homo sapiens", "settings": "Homo sapiens, LS-411N"}, "A-375": {"system": "A-375", "type": "functional, cell-based, Homo sapiens", "settings": "Homo sapiens, A-375", "description": "SANGER: Inhibition of human A375 cell growth in a cell viability assay."}, "NTERA-2-cl-D1": {"system": "NTERA-2-cl-D1", "type": "functional, cell-based, Homo sapiens", "settings": "Homo sapiens, NTERA-2-cl-D1", "description": "SANGER: Inhibition of human NTERA-S-cl-D1 cell growth in a cell viability assay."}, "MDA-MB-361": {"system": "MDA-MB-361", "type": "functional, cell-based, Homo sapiens", "settings": "Homo sapiens, MDA-MB-361"}, "MHH-PREB-1": {"system": "MHH-PREB-1", "type": "functional, cell-based", "settings": "Homo sapiens", "description": "SANGER: Inhibition of human MHH-PREB-1 cell growth in a cell viability assay."}, "HN": {"system": "HN", "type": "functional, cell-based, Homo sapiens", "settings": "Homo sapiens, HN", "description": "SANGER: Inhibition of human HN cell growth in a cell viability assay."}, "LK-2": {"system": "LK-2", "type": "functional, cell-based, Homo sapiens", "settings": "Homo sapiens, LK-2", "description": "SANGER: Inhibition of human LK-2 cell growth in a cell viability assay."}, "TE-8": {"system": "TE-8", "type": "functional, cell-based, Homo sapiens", "settings": "Homo sapiens, TE-8", "description": "SANGER: Inhibition of human TE-8 cell growth in a cell viability assay."}, "NCI-H1693": {"system": "NCI-H1693", "type": "functional, cell-based, Homo sapiens", "settings": "Homo sapiens, NCI-H1693", "description": "SANGER: Inhibition of human NCI-H1693 cell growth in a cell viability assay."}, "JVM-2": {"system": "JVM-2", "type": "functional, cell-based", "settings": "Homo sapiens", "description": "SANGER: Inhibition of human JVM-2 cell growth in a cell viability assay."}, "ES6": {"system": "ES6", "type": "functional, cell-based, Homo sapiens", "settings": "Homo sapiens, ES6", "description": "SANGER: Inhibition of human ES6 cell growth in a cell viability assay."}, "ONS-76": {"system": "ONS-76", "type": "functional, cell-based, Homo sapiens", "settings": "Homo sapiens, ONS-76", "description": "SANGER: Inhibition of human ONS-76 cell growth in a cell viability assay."}, "8-MG-BA": {"system": "8-MG-BA", "type": "functional, cell-based, Homo sapiens", "settings": "Homo sapiens, 8-MG-BA", "description": "SANGER: Inhibition of human 8-MG-BA cell growth in a cell viability assay."}, "J82": {"system": "J82", "type": "functional, cell-based", "settings": "Homo sapiens", "description": "SANGER: Inhibition of human J82 cell growth in a cell viability assay."}, "RCM-1": {"system": "RCM-1", "type": "functional, cell-based, Homo sapiens", "settings": "Homo sapiens, RCM-1", "description": "SANGER: Inhibition of human RCM-1 cell growth in a cell viability assay."}, "SW1990": {"system": "SW1990", "type": "functional, cell-based, Homo sapiens", "settings": "Homo sapiens, SW1990", "description": "SANGER: Inhibition of human SW1990 cell growth in a cell viability assay."}, "SCC-15": {"system": "SCC-15", "type": "functional, cell-based, Homo sapiens", "settings": "Homo sapiens, SCC-15", "description": "SANGER: Inhibition of human SCC-15 cell growth in a cell viability assay."}, "MKN-7": {"system": "MKN-7", "type": "functional, cell-based, Homo sapiens", "settings": "Homo sapiens, MKN-7", "description": "SANGER: Inhibition of human MKN7 cell growth in a cell viability assay."}, "COLO-668": {"system": "COLO-668", "type": "functional, cell-based, Homo sapiens", "settings": "Homo sapiens, COLO-668", "description": "SANGER: Inhibition of human COLO-668 cell growth in a cell viability assay."}, "MZ2-MEL": {"system": "MZ2-MEL", "type": "functional, cell-based, Homo sapiens", "settings": "Homo sapiens, MZ2-MEL", "description": "SANGER: Inhibition of human MZ2-MEL cell growth in a cell viability assay."}, "HT-1376": {"system": "HT-1376", "type": "functional, cell-based, Homo sapiens", "settings": "Homo sapiens, HT-1376", "description": "SANGER: Inhibition of human HT-1376 cell growth in a cell viability assay."}, "VMRC-RCZ": {"system": "VMRC-RCZ", "type": "functional, cell-based", "settings": "Homo sapiens", "description": "SANGER: Inhibition of human VMRC-RCZ cell growth in a cell viability assay."}, "DU-4475": {"system": "DU-4475", "type": "functional, cell-based", "settings": "Homo sapiens", "description": "SANGER: Inhibition of human DU-4475 cell growth in a cell viability assay."}, "HL-60": {"system": "HL-60", "type": "functional, cell-based", "settings": "Homo sapiens", "description": "SANGER: Inhibition of human HL-60 cell growth in a cell viability assay."}, "HuP-T3": {"system": "HuP-T3", "type": "functional, cell-based, Homo sapiens", "settings": "Homo sapiens, HuP-T3", "description": "SANGER: Inhibition of human HuP-T3 cell growth in a cell viability assay."}, "SW-620": {"system": "SW-620", "type": "functional, cell-based, Homo sapiens", "settings": "Homo sapiens, SW-620", "description": "SANGER: Inhibition of human SW620 cell growth in a cell viability assay."}, "SW 954": {"system": "SW 954", "type": "functional, cell-based, Homo sapiens", "settings": "Homo sapiens, SW 954", "description": "SANGER: Inhibition of human SW954 cell growth in a cell viability assay."}, "DOHH-2": {"system": "DOHH-2", "type": "functional, cell-based", "settings": "Homo sapiens", "description": "SANGER: Inhibition of human DOHH-2 cell growth in a cell viability assay."}, "TE-6": {"system": "TE-6", "type": "functional, cell-based, Homo sapiens", "settings": "Homo sapiens, TE-6", "description": "SANGER: Inhibition of human TE-6 cell growth in a cell viability assay."}, "HGC-27": {"system": "HGC-27", "type": "functional, cell-based, Homo sapiens", "settings": "Homo sapiens, HGC-27", "description": "SANGER: Inhibition of human HGC-27 cell growth in a cell viability assay."}, "BV-173": {"system": "BV-173", "type": "functional, cell-based", "settings": "Homo sapiens", "description": "SANGER: Inhibition of human BV-173 cell growth in a cell viability assay."}, "ALL-PO": {"system": "ALL-PO", "type": "functional, cell-based", "settings": "Homo sapiens", "description": "SANGER: Inhibition of human ALL-PO cell growth in a cell viability assay."}, "PFSK-1": {"system": "PFSK-1", "type": "functional, cell-based, Homo sapiens", "settings": "Homo sapiens, PFSK-1", "description": "SANGER: Inhibition of human PFSK-1 cell growth in a cell viability assay."}, "LOX IMVI": {"system": "LOX IMVI", "type": "functional, cell-based", "settings": "Homo sapiens", "description": "SANGER: Inhibition of human LOXIMVI cell growth in a cell viability assay."}, "EM-2": {"system": "EM-2", "type": "functional, cell-based", "settings": "Homo sapiens", "description": "SANGER: Inhibition of human EM-2 cell growth in a cell viability assay."}, "ChaGo-K-1": {"system": "ChaGo-K-1", "type": "functional, cell-based", "settings": "Homo sapiens", "description": "SANGER: Inhibition of human ChaGo-K-1 cell growth in a cell viability assay."}, "MZ7-mel": {"system": "MZ7-mel", "type": "functional, cell-based, Homo sapiens", "settings": "Homo sapiens, MZ7-mel", "description": "SANGER: Inhibition of human MZ7-mel cell growth in a cell viability assay."}, "ACHN": {"system": "ACHN", "type": "functional, cell-based, Homo sapiens", "settings": "Homo sapiens, ACHN", "description": "SANGER: Inhibition of human ACHN cell growth in a cell viability assay."}, "HuP-T4": {"system": "HuP-T4", "type": "functional, cell-based, Homo sapiens", "settings": "Homo sapiens, HuP-T4", "description": "SANGER: Inhibition of human HuP-T4 cell growth in a cell viability assay."}, "NB5": {"system": "NB5", "type": "functional, cell-based, Homo sapiens", "settings": "Homo sapiens, NB5", "description": "SANGER: Inhibition of human NB5 cell growth in a cell viability assay."}, "A388": {"system": "A388", "type": "functional, cell-based, Homo sapiens", "settings": "Homo sapiens, A388", "description": "SANGER: Inhibition of human A388 cell growth in a cell viability assay."}, "CAMA-1": {"system": "CAMA-1", "type": "functional, cell-based, Homo sapiens", "settings": "Homo sapiens, CAMA-1", "description": "SANGER: Inhibition of human CAMA-1 cell growth in a cell viability assay."}, "AGS": {"system": "AGS", "type": "functional, cell-based, Homo sapiens", "settings": "Homo sapiens, AGS", "description": "SANGER: Inhibition of human AGS cell growth in a cell viability assay."}, "CGTH-W-1": {"system": "CGTH-W-1", "type": "functional, cell-based, Homo sapiens", "settings": "Homo sapiens, CGTH-W-1", "description": "SANGER: Inhibition of human CGTH-W-1 cell growth in a cell viability assay."}, "TYK-nu": {"system": "TYK-nu", "type": "functional, cell-based, Homo sapiens", "settings": "Homo sapiens, TYK-nu", "description": "SANGER: Inhibition of human TYK-nu cell growth in a cell viability assay."}, "EW-13": {"system": "EW-13", "type": "functional, cell-based", "settings": "Homo sapiens", "description": "SANGER: Inhibition of human EW-13 cell growth in a cell viability assay."}, "LC-2-ad": {"system": "LC-2-ad", "type": "functional, cell-based, Homo sapiens", "settings": "Homo sapiens, LC-2-ad", "description": "SANGER: Inhibition of human LC-2-ad cell growth in a cell viability assay."}, "NCI-H1648": {"system": "NCI-H1648", "type": "functional, cell-based, Homo sapiens", "settings": "Homo sapiens, NCI-H1648", "description": "SANGER: Inhibition of human NCI-H1648 cell growth in a cell viability assay."}, "SW1417": {"system": "SW1417", "type": "functional, cell-based, Homo sapiens", "settings": "Homo sapiens, SW1417", "description": "SANGER: Inhibition of human SW1417 cell growth in a cell viability assay."}}}
{"molecule": "COc1ccc(-c2ccc3c(N4CCOC[C@@H]4C)nc(N4CCOC[C@@H]4C)nc3n2)cc1CO", "note": "[AZD-8055]", "values": [{"measurement": "IC50", "setting": "KY821", "value": 1570, "unit": "nM"}, {"measurement": "IC50", "setting": "NCI-H1623", "value": 763, "unit": "nM"}, {"measurement": "IC50", "setting": "HCC70", "value": "> 2000", "unit": "nM"}, {"measurement": "IC50", "setting": "LS-411N", "value": 1150, "unit": "nM"}, {"measurement": "IC50", "setting": "A-375", "value": 752, "unit": "nM"}, {"measurement": "IC50", "setting": "NTERA-2-cl-D1", "value": 701, "unit": "nM"}, {"measurement": "IC50", "setting": "MDA-MB-361", "value": 509, "unit": "nM"}, {"measurement": "IC50", "setting": "MHH-PREB-1", "value": 747, "unit": "nM"}, {"measurement": "IC50", "setting": "HN", "value": 1900, "unit": "nM"}, {"measurement": "IC50", "setting": "LK-2", "value": 268, "unit": "nM"}, {"measurement": "IC50", "setting": "TE-8", "value": 1460, "unit": "nM"}, {"measurement": "IC50", "setting": "NCI-H1693", "value": 1980, "unit": "nM"}, {"measurement": "IC50", "setting": "JVM-2", "value": "> 2000", "unit": "nM"}, {"measurement": "IC50", "setting": "ES6", "value": 1360, "unit": "nM"}, {"measurement": "IC50", "setting": "ONS-76", "value": "> 2000", "unit": "nM"}, {"measurement": "IC50", "setting": "8-MG-BA", "value": 1980, "unit": "nM"}, {"measurement": "IC50", "setting": "J82", "value": "> 2000", "unit": "nM"}, {"measurement": "IC50", "setting": "RCM-1", "value": "> 2000", "unit": "nM"}, {"measurement": "IC50", "setting": "SW1990", "value": 1480, "unit": "nM"}, {"measurement": "IC50", "setting": "SCC-15", "value": 1170, "unit": "nM"}, {"measurement": "IC50", "setting": "MKN-7", "value": 1220, "unit": "nM"}, {"measurement": "IC50", "setting": "COLO-668", "value": "> 2000", "unit": "nM"}, {"measurement": "IC50", "setting": "MZ2-MEL", "value": 409, "unit": "nM"}, {"measurement": "IC50", "setting": "HT-1376", "value": "> 2000", "unit": "nM"}, {"measurement": "IC50", "setting": "VMRC-RCZ", "value": 785, "unit": "nM"}, {"measurement": "IC50", "setting": "DU-4475", "value": 80.5, "unit": "nM"}, {"measurement": "IC50", "setting": "HL-60", "value": 604, "unit": "nM"}, {"measurement": "IC50", "setting": "HuP-T3", "value": "> 2000", "unit": "nM"}, {"measurement": "IC50", "setting": "SW-620", "value": "> 2000", "unit": "nM"}, {"measurement": "IC50", "setting": "SW 954", "value": "> 2000", "unit": "nM"}, {"measurement": "IC50", "setting": "DOHH-2", "value": 793, "unit": "nM"}, {"measurement": "IC50", "setting": "TE-6", "value": 1710, "unit": "nM"}, {"measurement": "IC50", "setting": "HGC-27", "value": 264, "unit": "nM"}, {"measurement": "IC50", "setting": "BV-173", "value": 90.6, "unit": "nM"}, {"measurement": "IC50", "setting": "ALL-PO", "value": 1440, "unit": "nM"}, {"measurement": "IC50", "setting": "PFSK-1", "value": 830, "unit": "nM"}, {"measurement": "IC50", "setting": "LOX IMVI", "value": 551, "unit": "nM"}, {"measurement": "IC50", "setting": "EM-2", "value": 342, "unit": "nM"}, {"measurement": "IC50", "setting": "ChaGo-K-1", "value": "> 2000", "unit": "nM"}, {"measurement": "IC50", "setting": "MZ7-mel", "value": "> 2000", "unit": "nM"}, {"measurement": "IC50", "setting": "ACHN", "value": 1910, "unit": "nM"}, {"measurement": "IC50", "setting": "HuP-T4", "value": 1490, "unit": "nM"}, {"measurement": "IC50", "setting": "NB5", "value": 703, "unit": "nM"}, {"measurement": "IC50", "setting": "A388", "value": "> 2000", "unit": "nM"}, {"measurement": "IC50", "setting": "CAMA-1", "value": 622, "unit": "nM"}, {"measurement": "IC50", "setting": "AGS", "value": 1090, "unit": "nM"}, {"measurement": "IC50", "setting": "CGTH-W-1", "value": 1560, "unit": "nM"}, {"measurement": "IC50", "setting": "TYK-nu", "value": 319, "unit": "nM"}, {"measurement": "IC50", "setting": "EW-13", "value": "> 2000", "unit": "nM"}, {"measurement": "IC50", "setting": "LC-2-ad", "value": 221, "unit": "nM"}, {"measurement": "IC50", "setting": "NCI-H1648", "value": 702, "unit": "nM"}, {"measurement": "IC50", "setting": "SW1417", "value": "> 2000", "unit": "nM"}]}
